According to ChEMBL document CHEMBL1157641, “Carbonic anhydrase inhibitors. Inhibition of mammalian isoforms I-XIV with a series of natural product polyphenols and phenolic acids” (Bioorg Med Chem, 2010):

Experiments:
Carbonic anhydrase 13 = Carbonic anhydrase 13 (Mus musculus, UniProt Q9D6N1)
Description: Inhibition of mouse CA13 by stopped-flow CO2 hydration assay

Carbonic anhydrase 12 = Carbonic anhydrase 12 (Homo sapiens, UniProt O43570)
Description: Inhibition of human CA12 by stopped-flow CO2 hydration assay

Carbonic anhydrase 4 = Carbonic anhydrase 4 (Homo sapiens, UniProt P22748)
Description: Inhibition of human CA4 by stopped-flow CO2 hydration assay

Carbonic anhydrase 3 = Carbonic anhydrase 3 (Homo sapiens, UniProt P07451)
Chain of Carbonic anhydrase 3 (P07451 whole entry): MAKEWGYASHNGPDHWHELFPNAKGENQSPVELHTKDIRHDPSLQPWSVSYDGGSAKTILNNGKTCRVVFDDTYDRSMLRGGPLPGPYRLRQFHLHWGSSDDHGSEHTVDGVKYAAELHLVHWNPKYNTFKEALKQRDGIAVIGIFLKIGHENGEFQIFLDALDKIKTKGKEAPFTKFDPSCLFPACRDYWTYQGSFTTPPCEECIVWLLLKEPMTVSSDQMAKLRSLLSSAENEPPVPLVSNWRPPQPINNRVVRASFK
Description: Inhibition of human CA3 by stopped-flow CO2 hydration assay

Carbonic anhydrase 7 = Carbonic anhydrase 7 (Homo sapiens, UniProt P43166)
Chain of Carbonic anhydrase 7 (P43166 whole entry): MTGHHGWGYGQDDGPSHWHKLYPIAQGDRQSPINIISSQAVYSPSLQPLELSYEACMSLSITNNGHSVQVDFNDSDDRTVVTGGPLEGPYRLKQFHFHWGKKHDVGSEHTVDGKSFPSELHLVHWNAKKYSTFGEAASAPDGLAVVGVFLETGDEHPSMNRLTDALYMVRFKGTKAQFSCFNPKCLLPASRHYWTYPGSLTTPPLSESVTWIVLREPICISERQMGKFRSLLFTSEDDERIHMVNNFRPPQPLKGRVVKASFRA
Description: Inhibition of human CA7 by stopped-flow CO2 hydration assay

Carbonic anhydrase 6 = Carbonic anhydrase 6 (Homo sapiens, UniProt P23280)
Chain of Carbonic anhydrase 6 (P23280 whole entry): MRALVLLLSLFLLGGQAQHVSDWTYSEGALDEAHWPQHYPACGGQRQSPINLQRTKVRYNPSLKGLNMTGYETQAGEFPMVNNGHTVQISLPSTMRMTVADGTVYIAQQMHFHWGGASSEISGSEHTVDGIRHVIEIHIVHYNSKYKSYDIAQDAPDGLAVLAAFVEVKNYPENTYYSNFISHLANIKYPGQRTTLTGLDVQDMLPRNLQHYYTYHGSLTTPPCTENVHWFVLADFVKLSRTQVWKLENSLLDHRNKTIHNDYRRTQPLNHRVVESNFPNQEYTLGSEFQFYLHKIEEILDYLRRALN
Description: Inhibition of human CA6 by stopped-flow CO2 hydration assay

Carbonic anhydrase 14 = Carbonic anhydrase 14 (Homo sapiens, UniProt Q9ULX7)
Chain of Carbonic anhydrase 14 (Q9ULX7 whole entry): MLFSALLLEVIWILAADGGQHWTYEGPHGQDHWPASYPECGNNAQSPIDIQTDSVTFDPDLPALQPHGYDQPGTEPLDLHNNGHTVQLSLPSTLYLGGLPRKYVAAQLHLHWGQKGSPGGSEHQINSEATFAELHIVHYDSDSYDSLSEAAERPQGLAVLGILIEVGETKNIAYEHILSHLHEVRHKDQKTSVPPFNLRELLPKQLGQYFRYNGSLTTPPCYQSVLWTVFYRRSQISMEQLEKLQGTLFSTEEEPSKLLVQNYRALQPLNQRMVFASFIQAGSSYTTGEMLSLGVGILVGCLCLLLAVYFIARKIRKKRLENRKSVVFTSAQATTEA
Description: Inhibition of human CA14 by stopped-flow CO2 hydration assay

Carbonic anhydrase 9 = Carbonic anhydrase 9 (Homo sapiens, UniProt Q16790)
Description: Inhibition of human CA9 by stopped-flow CO2 hydration assay

Carbonic anhydrase 1 = Carbonic anhydrase 1 (Homo sapiens, UniProt P00915)
Chain of Carbonic anhydrase 1 (P00915 whole entry): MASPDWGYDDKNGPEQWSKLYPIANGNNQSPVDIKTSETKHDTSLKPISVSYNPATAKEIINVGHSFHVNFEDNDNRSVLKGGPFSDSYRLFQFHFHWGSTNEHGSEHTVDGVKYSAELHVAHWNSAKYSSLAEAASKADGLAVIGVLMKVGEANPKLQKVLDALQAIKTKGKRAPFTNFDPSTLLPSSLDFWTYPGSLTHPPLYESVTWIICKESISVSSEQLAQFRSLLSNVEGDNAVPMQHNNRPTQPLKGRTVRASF
Description: Inhibition of human CA1 by stopped-flow CO2 hydration assay

[1] = biological target: Carbonic anhydrase 5A, mitochondrial (Homo sapiens, UniProt P35218)
Chain of Carbonic anhydrase 5A, mitochondrial (P35218 whole entry): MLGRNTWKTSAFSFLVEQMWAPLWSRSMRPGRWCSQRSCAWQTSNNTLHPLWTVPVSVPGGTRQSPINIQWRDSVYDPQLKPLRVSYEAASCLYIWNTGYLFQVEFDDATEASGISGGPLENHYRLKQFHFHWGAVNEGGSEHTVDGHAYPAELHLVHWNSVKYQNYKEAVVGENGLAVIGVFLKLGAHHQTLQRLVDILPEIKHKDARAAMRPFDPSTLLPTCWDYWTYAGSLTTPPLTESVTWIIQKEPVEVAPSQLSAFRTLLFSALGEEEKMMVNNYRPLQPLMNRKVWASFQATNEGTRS
Description: Inhibition of human CA5A by stopped-flow CO2 hydration assay

[2] = biological target: Carbonic anhydrase 5B, mitochondrial (Homo sapiens, UniProt Q9Y2D0)
Chain of Carbonic anhydrase 5B, mitochondrial (Q9Y2D0 whole entry): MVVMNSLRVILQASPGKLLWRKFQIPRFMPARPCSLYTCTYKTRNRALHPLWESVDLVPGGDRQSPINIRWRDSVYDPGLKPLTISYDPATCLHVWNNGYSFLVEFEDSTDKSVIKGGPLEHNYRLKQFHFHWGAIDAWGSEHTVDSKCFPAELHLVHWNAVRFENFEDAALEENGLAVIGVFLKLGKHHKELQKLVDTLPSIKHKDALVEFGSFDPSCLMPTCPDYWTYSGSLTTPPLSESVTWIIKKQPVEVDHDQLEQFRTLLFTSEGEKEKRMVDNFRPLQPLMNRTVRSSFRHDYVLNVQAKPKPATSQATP
Description: Inhibition of human CA5B by stopped-flow CO2 hydration assay

Carbonic anhydrase 2 = Carbonic anhydrase 2 (Homo sapiens, UniProt P00918)
Description: Inhibition of human CA2 by stopped-flow CO2 hydration assay

Chain of Carbonic anhydrase 4 (P22748 whole entry): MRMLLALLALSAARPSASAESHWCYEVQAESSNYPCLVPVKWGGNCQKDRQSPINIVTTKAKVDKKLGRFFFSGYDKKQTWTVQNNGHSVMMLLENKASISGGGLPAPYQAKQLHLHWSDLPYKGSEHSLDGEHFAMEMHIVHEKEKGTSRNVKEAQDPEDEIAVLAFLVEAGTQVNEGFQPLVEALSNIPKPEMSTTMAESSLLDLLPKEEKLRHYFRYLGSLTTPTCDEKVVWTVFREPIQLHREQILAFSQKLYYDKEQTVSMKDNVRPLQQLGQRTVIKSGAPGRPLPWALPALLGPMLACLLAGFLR
Chain of Carbonic anhydrase 13 (Q9D6N1 whole entry): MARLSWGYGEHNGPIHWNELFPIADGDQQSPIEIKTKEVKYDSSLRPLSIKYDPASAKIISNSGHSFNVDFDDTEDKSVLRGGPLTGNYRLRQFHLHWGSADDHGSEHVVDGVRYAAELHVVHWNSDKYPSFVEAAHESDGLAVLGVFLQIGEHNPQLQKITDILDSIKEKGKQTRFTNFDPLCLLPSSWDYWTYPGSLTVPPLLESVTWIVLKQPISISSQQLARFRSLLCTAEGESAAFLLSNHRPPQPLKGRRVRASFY
Chain of Carbonic anhydrase 12 (O43570 whole entry): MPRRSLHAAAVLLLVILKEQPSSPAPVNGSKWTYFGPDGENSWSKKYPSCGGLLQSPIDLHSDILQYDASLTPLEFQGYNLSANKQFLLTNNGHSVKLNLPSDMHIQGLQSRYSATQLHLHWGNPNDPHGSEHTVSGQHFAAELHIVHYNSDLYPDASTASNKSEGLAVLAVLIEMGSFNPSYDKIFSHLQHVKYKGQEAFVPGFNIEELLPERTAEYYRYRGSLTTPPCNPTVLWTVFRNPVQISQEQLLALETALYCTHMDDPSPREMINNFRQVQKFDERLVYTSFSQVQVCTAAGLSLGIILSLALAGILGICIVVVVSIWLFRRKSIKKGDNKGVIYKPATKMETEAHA

Row | SMILES | Ki (Carbonic anhydrase 13) | Ki (Carbonic anhydrase 12) | Ki (Carbonic anhydrase 4) | Ki (Carbonic anhydrase 3) | Ki (Carbonic anhydrase 7) | Ki (Carbonic anhydrase 6) | Ki (Carbonic anhydrase 14) | Ki (Carbonic anhydrase 9) | Ki (Carbonic anhydrase 1) | Ki [1] | Ki [2] | Ki (Carbonic anhydrase 2)
1 | O=C(O)/C=C/c1ccc(O)cc1 [COUMARIC ACID] | 10.1 µM | 8.01 µM | 9.6 µM | 7.57 µM | 5.23 µM | 6.72 µM | 6.68 µM | 5.33 µM | 1.07 µM | 5.96 µM | 7.76 µM | 0.98 µM
2 | O=c1oc2c(O)c(O)cc3c(=O)oc4c(O)c(O)cc1c4c23 [ELLAGIC ACID] | 10.3 µM | 10.1 µM | 9.08 µM | 10.5 µM | 6.32 µM | 7.06 µM | 8.91 µM | 9.37 µM | 2.32 µM | 7.59 µM | 12.7 µM | –
3 | COc1cc(/C=C/C(=O)O)ccc1O [FERULATE] | 12.2 µM | 9.78 µM | 10.8 µM | 11.1 µM | 7.41 µM | 8.45 µM | 9.43 µM | 9.87 µM | 2.89 µM | 7.04 µM | 10.5 µM | 2.4 µM
4 | O=C(O)c1cc(O)c(O)c(O)c1 [GALLIC ACID] | 9.86 µM | 7.78 µM | 9.8 µM | 7.49 µM | 6.07 µM | 6.13 µM | 7.03 µM | 6.99 µM | 3.2 µM | 4.08 µM | 9.97 µM | 2.25 µM
5 | O=C(O)c1ccc(O)cc1 [PARABEN] | 7.79 µM | 6.27 µM | 7.78 µM | 6.61 µM | 4.08 µM | 5.7 µM | 6.16 µM | 3.73 µM | 0.92 µM | 3.67 µM | – | –
6 | O=c1c(O)c(-c2ccc(O)c(O)c2)oc2cc(O)cc(O)c12 [QUERCETIN] | 9.03 µM | 9.39 µM | 7.89 µM | 8.1 µM | 4.84 µM | 6.17 µM | 5.41 µM | 7 µM | 2.68 µM | 6.81 µM | 11.9 µM | 2.54 µM
7 | COc1cc(C(=O)O)cc(OC)c1O [SYRINGIC ACID] | 11 µM | 9.01 µM | 10.6 µM | 8.58 µM | 7.81 µM | 7.55 µM | 9.14 µM | 8.2 µM | 4.15 µM | 6.34 µM | 35.4 µM | 3.19 µM
